Experimental data as given in ChEMBL document CHEMBL1126778, “Adenosine A1 antagonists. 3. Structure-activity relationships on amelioration against scopolamine- or N6-((R)-phenylisopropyl)adenosine-induced cognitive disturbance” (J Med Chem, 1993).
pKi: −log10 of the molar value. “And” between values parts separate entries of the source, which are not always exact repeats. Identical values can stand only once. Each block holds one molecule with its values, some of them ahead of it.

Experiments:
Mus musculus [1] = test: Retention time in (R)-PIA) induced avoidance test (performed in mice) for antagonistic activity after peroral administration of 0.31 mg/kg (n=15) (P<0.005); format: functional, organism-based; parameters: dose 0.31 mg/kg
Mus musculus [2] = test: Tested for locomotor activity after oral administration of 40 mg/kg for 120 min; format: functional
Rattus norvegicus [3] = test: Acquisition time in Scopolamine induced avoidance test (performed in rat) for antagonistic activity after peroral administration of 1.25 mg/kg; format: functional; settings: route oral
Mus musculus [4] = test: Retention time in (R)-PIA) induced avoidance test (performed in mice) for antagonistic activity after peroral administration of 1.25 mg/kg (n=15) (P<0.01); format: functional, organism-based; parameters: dose 1.25 mg/kg
Rattus norvegicus [5] = test: Acquisition time in Scopolamine induced avoidance test (performed in rat) for antagonistic activity after peroral administration of 0.08 mg/kg (n=13); format: functional; settings: route oral
Mus musculus [6] = test: Retention time in (R)-PIA) induced avoidance test (performed in mice) for antagonistic activity after peroral administration of 5 mg/kg; format: functional, organism-based; parameters: dose 5 mg/kg
Rattus norvegicus [7] = test: Retention time in Scopolamine induced avoidance test (performed in rat) for antagonistic activity after peroral administration of 0.31 mg/kg (n=13) (P<0.005); format: functional, organism-based; parameters: dose 0.31 mg/kg
Mus musculus [8] = test: Retention time in (R)-PIA) induced avoidance test (performed in mice) for antagonistic activity after peroral administration of 0.08 mg/kg (n=15) (P<0.01); format: functional, organism-based; parameters: dose 0.08 mg/kg
Rattus norvegicus [9] = test: Acquisition time in Scopolamine induced avoidance test (performed in rat) for antagonistic activity after peroral administration of 0.02 mg/kg (n=13); format: functional; settings: route oral
Mus musculus [10] = test: Acquisition time in (R)-PIA) induced avoidance test (performed in mice) for antagonistic activity after peroral administration of 0.31 mg/kg (n=15); format: functional; settings: route oral
Rattus norvegicus [11] = test: Acquisition time in Scopolamine induced avoidance test (performed in rat) for antagonistic activity after peroral administration of 0.31 mg/kg (n=13); format: functional; settings: route oral
Mus musculus [12] = test: Acquisition time in (R)-PIA) induced avoidance test (performed in mice) for antagonistic activity after peroral administration of 1.25 mg/kg (n=15); format: functional; settings: route oral
Rattus norvegicus [13] = test: Retention time in Scopolamine induced avoidance test (performed in rat) for antagonistic activity after peroral administration of 0.02 mg/kg (n=13); format: functional, organism-based; parameters: dose 0.02 mg/kg
Mus musculus [14] = test: Tested for locomotor activity after oral administration of 6.25 mg/kg for 120 min; format: functional
Rattus norvegicus [15] = test: Retention time in Scopolamine induced avoidance test (performed in rat) for antagonistic activity after peroral administration of 0.08 mg/kg (n=13) (P<0.01); format: functional, organism-based; parameters: dose 0.08 mg/kg
Mus musculus [16] = test: Acquisition time in (R)-PIA) induced avoidance test (performed in mice) for antagonistic activity after peroral administration of 5 mg/kg; format: functional; settings: route oral
Mus musculus [17] = test: Acquisition time in (R)-PIA) induced avoidance test (performed in mice) for antagonistic activity after peroral administration of 0.08 mg/kg (n=15); format: functional; settings: route oral
Rattus norvegicus [18] = test: Retention time in Scopolamine induced avoidance test (performed in rat) for antagonistic activity after peroral administration of 5 mg/kg; format: functional, organism-based; parameters: dose 5 mg/kg
Mus musculus [19] = test: Tested for locomotor activity after oral administration of 10 mg/kg for 120 min; format: functional
Rattus norvegicus [20] = test: Acquisition time in Scopolamine induced avoidance test (performed in rat) for antagonistic activity after peroral administration of 5 mg/kg; format: functional; settings: route oral
[21] = target: Adenosine receptor A1, Rattus norvegicus (UniProt P25099); test: Binding affinity against Adenosine A1 receptor from rat forebrain membranes with N6-[3H]- cyclohexyladenosine
Adenosine receptor A1 = target: T1, Adenosine receptor A1 (Cavia porcellus, UniProt P47745); test: Binding affinity against Adenosine A1 receptor from guinea pig forebrain membranes by N6-[3H]- cyclohexyladenosine displacement.
T1 sequence (P47745 whole entry): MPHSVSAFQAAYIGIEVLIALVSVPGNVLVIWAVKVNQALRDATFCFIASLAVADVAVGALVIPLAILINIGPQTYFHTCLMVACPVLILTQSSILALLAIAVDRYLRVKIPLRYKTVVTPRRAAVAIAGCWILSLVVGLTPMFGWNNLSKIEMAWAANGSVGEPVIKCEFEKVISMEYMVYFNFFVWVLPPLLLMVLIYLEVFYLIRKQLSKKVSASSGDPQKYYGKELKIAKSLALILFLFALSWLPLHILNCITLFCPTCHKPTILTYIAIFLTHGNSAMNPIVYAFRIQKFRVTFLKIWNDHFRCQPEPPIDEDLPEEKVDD

Mus musculus [22] = test: Acquisition time in (R)-PIA) induced avoidance test (performed in mice) for antagonistic activity after p.o. administration of 1.25 mg/kg; format: functional; settings: route oral
Mus musculus [23] = test: Retention time in (R)-PIA) induced avoidance test (performed in mice) for antagonistic activity after p.o. administration of 1.25 mg/kg; format: functional, organism-based; parameters: dose 1.25 mg/kg
Rattus norvegicus [24] = test: Retention time in Scopolamine induced avoidance test (performed in rat) for antagonistic activity after p.o. administration of 0.31 mg/kg; format: functional, organism-based; parameters: dose 0.31 mg/kg
Rattus norvegicus [25] = test: Retention time in Scopolamine induced avoidance test (performed in rat) for antagonistic activity after peroral administration of 1.25 mg/kg; format: functional, organism-based; parameters: dose 1.25 mg/kg
Mus musculus [26] = test: Retention time in (R)-PIA) induced avoidance test (performed in mice) for antagonistic activity after peroral administration of 0.31 mg/kg; format: functional, organism-based; parameters: dose 0.31 mg/kg
Rattus norvegicus [27] = test: Acquisition time in Scopolamine induced avoidance test (performed in rat) for antagonistic activity after p.o. administration of 0.31 mg/kg; format: functional; settings: route oral
Rattus norvegicus [28] = test: Acquisition time in Scopolamine induced avoidance test (performed in rat) for antagonistic activity after peroral administration of 20 mg/kg; format: functional; settings: route oral
Mus musculus [29] = test: Retention time in (R)-PIA) induced avoidance test (performed in mice) for antagonistic activity after peroral administration of 0.02 mg/kg
Rattus norvegicus [30] = test: Acquisition time in Scopolamine induced avoidance test (performed in rat) for antagonistic activity after peroral administration of 1.25 mg/kg (n=20); format: functional; settings: route oral
Mus musculus [31] = test: Acquisition time in (R)-PIA) induced avoidance test (performed in mice) for antagonistic activity after peroral administration of 0.02 mg/kg; settings: route oral
Rattus norvegicus [32] = test: Retention time in Scopolamine induced avoidance test (performed in rat) for antagonistic activity after p.o. administration of 0.08 mg/kg; format: functional, organism-based; parameters: dose 0.08 mg/kg
Rattus norvegicus [33] = test: Retention time in Scopolamine induced avoidance test (performed in […]) for antagonistic activity after peroral administration of 5 mg/kg; format: functional, organism-based; parameters: dose 5 mg/kg
Rattus norvegicus [34] = test: Retention time in Scopolamine induced avoidance test (performed in rat) for antagonistic activity after peroral administration of 20 mg/kg (n=19); format: functional, organism-based; parameters: dose 20 mg/kg
Mus musculus [35] = test: Retention time in (R)-PIA) induced avoidance test (performed in mice) for antagonistic activity after peroral administration of 0.08 mg/kg; format: functional, organism-based; parameters: dose 0.08 mg/kg
Rattus norvegicus [36] = test: Acquisition time in Scopolamine induced avoidance test (performed in rat) for antagonistic activity after p.o. administration of 0.08 mg/kg; format: functional; settings: route oral
Rattus norvegicus [37] = test: Acquisition time in Scopolamine induced avoidance test (performed in rat) for antagonistic activity after p.o. administration of 5 mg/kg; format: functional; settings: route oral
Mus musculus [38] = test: Acquisition time in (R)-PIA) induced avoidance test (performed in mice) for antagonistic activity after peroral administration of 0.08 mg/kg; format: functional; settings: route oral
Adenosine A2 receptor [39] = target: Adenosine A2 receptor (Rattus norvegicus, UniProt P29276+P30543); test: Binding affinity at Adenosine A2 receptor from rat striatal membranes by N-[3H] ethyladenosin-5'- uronamide displacement.
Mus musculus [40] = test: Acquisition time in (R)-PIA) induced avoidance test (performed in mice) for antagonistic activity after p.o. administration of 0.31 mg/kg; format: functional; settings: route oral
Rattus norvegicus [41] = test: Acquisition time in Scopolamine induced avoidance test (performed in rat) for antagonistic activity after peroral administration of 0.02 mg/kg; format: functional; settings: route oral
Rattus norvegicus [42] = test: Acquisition time in Scopolamine induced avoidance test (performed in rat) for antagonistic activity after peroral administration of 1.25 mg/kg (n=12); format: functional; settings: route oral
Rattus norvegicus [43] = test: Retention time in Scopolamine induced avoidance test (performed in […]) for antagonistic activity after peroral administration of 1.25 mg/kg (n=12) (P<0.01); format: functional, organism-based; parameters: dose 1.25 mg/kg
Mus musculus [44] = test: Retention time in (R)-PIA) induced avoidance test (performed in mice) for antagonistic activity after peroral administration of 20 mg/kg (n=15) (P<0.005); format: functional, organism-based; parameters: dose 20 mg/kg
Adenosine A2 receptor [45] = target: Adenosine A2 receptor (Homo sapiens, UniProt P29275+P29274); test: Binding affinity against Adenosine A2 receptor from human platelets with [125I]-N6-aminobenzyladenosine
Mus musculus [46] = test: Acquisition time in (R)-PIA) induced avoidance test (performed in mice) for antagonistic activity after peroral administration of 20 mg/kg (n=15); format: functional; settings: route oral
Mus musculus [47] = test: Tested for locomotor activity after oral administration of […] for 120 min; format: functional
Rattus norvegicus [48] = test: Retention time in Scopolamine induced avoidance test (performed in rat) for antagonistic activity after peroral administration of 0.02 mg/kg; format: functional, organism-based; parameters: dose 0.02 mg/kg

Adenosine receptor A1, Rattus norvegicus, sequence (P25099 whole entry, looked up): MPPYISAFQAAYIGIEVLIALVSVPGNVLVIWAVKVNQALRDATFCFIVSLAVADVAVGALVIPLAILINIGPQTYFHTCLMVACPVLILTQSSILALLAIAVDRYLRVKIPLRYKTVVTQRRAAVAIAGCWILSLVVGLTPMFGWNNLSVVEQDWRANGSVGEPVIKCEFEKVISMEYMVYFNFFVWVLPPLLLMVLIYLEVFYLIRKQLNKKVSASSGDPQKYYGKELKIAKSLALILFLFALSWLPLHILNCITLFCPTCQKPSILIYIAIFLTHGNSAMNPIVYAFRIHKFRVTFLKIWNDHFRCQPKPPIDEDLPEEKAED

SMILES: CCCn1c(=O)c2[nH]c(C3CCCC3)nc2n(CCC)c1=O [1,3-DIPROPYL-8-CYCLOPENTYLXANTHINE [DPCPX]]
Retention time (Mus musculus [1]): 456 s
Locomotor activity (Mus musculus [2]): 5257 Counts
Acquisition time (Rattus norvegicus [3]): 12.4 s
Retention time (Mus musculus [4]): 272 s
Acquisition time (Rattus norvegicus [5]): 21.5 s
Retention time (Mus musculus [6]): 433 s
Retention time (Rattus norvegicus [7]): 273 s
Retention time (Mus musculus [8]): 190 s
Acquisition time (Rattus norvegicus [9]): 19.8 s
Acquisition time (Mus musculus [10]): 19.1 s
Acquisition time (Rattus norvegicus [11]): 24.7 s
Acquisition time (Mus musculus [12]): 20.5 s
Retention time (Rattus norvegicus [13]): 32 s
Locomotor activity (Mus musculus [14]): 3826 Counts
Retention time (Rattus norvegicus [15]): 105 s
Acquisition time (Mus musculus [16]): 18.4 s
Acquisition time (Mus musculus [17]): 19.4 s
Retention time (Rattus norvegicus [18]): 68.7 s
Locomotor activity (Mus musculus [19]): 4679 Counts
Acquisition time (Rattus norvegicus [20]): 14.6 s

pKi [21]: 9.64
pKi (Adenosine receptor A1): 8.25
SMILES: CCCn1c(=O)c2[nH]c(C3CCCC3)nc2n(CCc2ccc(N)cc2)c1=O

Ki (Adenosine A2 receptor [39]): > 100000 nM
SMILES: CCCn1c(=O)c2nc(C3CCC(=O)C3)[nH]c2n(CCc2ccc(N)cc2)c1=O (centres undefined)
Acquisition time (Mus musculus [22]): 14.6 s
Retention time (Mus musculus [23]): 19.1 s
Retention time (Rattus norvegicus [24]): 109 s
Retention time (Rattus norvegicus [25]): 163 s
Retention time (Mus musculus [6]): 67.7 s
Retention time (Mus musculus [26]): 23.4 s
Acquisition time (Rattus norvegicus [27]): 13.1 s
Acquisition time (Rattus norvegicus [28]): 13.6 s
Retention time (Mus musculus [29]): 73.9 s
Acquisition time (Rattus norvegicus [30]): 12.1 s
Acquisition time (Mus musculus [31]): 14.2 s
Retention time (Rattus norvegicus [32]): 119 s
Retention time (Rattus norvegicus [33]): 108 s
Retention time (Rattus norvegicus [34]): 117 s
Retention time (Mus musculus [35]): 18.7 s
Acquisition time (Mus musculus [16]): 12.9 s
Acquisition time (Rattus norvegicus [36]): 10.5 s
Acquisition time (Rattus norvegicus [37]): 10.2 s
Acquisition time (Mus musculus [38]): 16.4 s
Acquisition time (Mus musculus [40]): 17.5 s

Ki (Adenosine A2 receptor [45]): 2000 nM
Ki (Adenosine A2 receptor [39]): 430 nM
SMILES: CCCn1c(=O)c2nc(C3CCCC3)[nH]c2n(CCc2ccc(N)cc2)c1=O
Acquisition time (Mus musculus [22]; 1.25 mg/kg): 28.7 s and 23.1 s
Retention time (Mus musculus [23]): 152 s and 177 s
Retention time (Rattus norvegicus [24]): 255 s
Locomotor activity (Mus musculus [2]): 5867 Counts
Retention time (Mus musculus [26]): 113 s
Acquisition time (Rattus norvegicus [27]): 11.1 s
Acquisition time (Rattus norvegicus [41]): 25.7 s
Acquisition time (Rattus norvegicus [42]): 18.3 s
Retention time (Rattus norvegicus [43]): 384 s
Retention time (Rattus norvegicus [32]): 160 s
Retention time (Mus musculus [44]): 318 s
Acquisition time (Mus musculus [46]): 23.5 s
Retention time (Rattus norvegicus [18]): 255 s
Acquisition time (Rattus norvegicus [36]): 20.8 s
Acquisition time (Rattus norvegicus [37]): 12.3 s
Acquisition time (Mus musculus [38]): 21.2 s
Locomotor activity (Mus musculus [47]): 6224 Counts
Locomotor activity (Mus musculus [19]): 6693 Counts
Retention time (Rattus norvegicus [48]): 151 s
